Earlier results as cited in patent US20090246278A1, “USE OF ESSENTIAL OILS TO REDUCE BENZODIAZEPINE REQUIREMENTS DURING MEDICAL PROCEDURES” (priority 2008, published 2009).

Tested on: GABA receptors
Settings: effects antagonized by flumazenil

C=C1CCC2CC1C2(C)C (stereo not drawn) [β-pinene, beta-pinene]
GABA-ergic properties: exert GABA-ergic properties

CC1=CCC2CC1C2(C)C (stereo not drawn) [α-pinene, alpha-pinene]
GABA-ergic properties: exert GABA-ergic properties
